From patent publication US20110172217A1, “RING-FUSED MORPHOLINE DERIVATIVE HAVING PI3K-INHIBITING ACTIVITY” (Shionogi & Co., Ltd., priority 2008, published 2011)

How the values were obtained:
[1] = Solubility test in artificial intestinal juice pH 6.8; type: physicochemical; conditions: kinetic from dmso stock, artificial intestinal juice pH 6.8, 1% DMSO, 25° C.
Protocol: The solubility of a compound was determined under a condition in which 1% DMSO was added. 10 mmol/L compound solution was prepared using DMSO, and then 6 μL of the compound solution was added to 594 μL of artificial intestinal juice in pH 6.8 (to 250 mL of 0.2 mol/L potassium dihydrogen phosphate reagent solution was added 118 mL of 0.2 mol/L NaOH reagent solution and water to provide a final volume of 1000 mL). After standing at 25° C. for 16 hours, the mixed solution was filtered with suction. The filtrate was diluted twice with methanol/water (1/1), and then a concentration in the filtration was measured with HPLC or LC/MS/MS by the absolute calibration method.

PI-3 kinase γ = PI-3 kinase γ (Homo sapiens, UniProt P48736); test: PI3Kγ inhibitory activity, PI3-kinase HTRF assay (inhibition ratio); type: biochemical; conditions: 0.5 h, compound at 50 μmol/L
Sequence of PI-3 kinase γ (P48736 whole entry): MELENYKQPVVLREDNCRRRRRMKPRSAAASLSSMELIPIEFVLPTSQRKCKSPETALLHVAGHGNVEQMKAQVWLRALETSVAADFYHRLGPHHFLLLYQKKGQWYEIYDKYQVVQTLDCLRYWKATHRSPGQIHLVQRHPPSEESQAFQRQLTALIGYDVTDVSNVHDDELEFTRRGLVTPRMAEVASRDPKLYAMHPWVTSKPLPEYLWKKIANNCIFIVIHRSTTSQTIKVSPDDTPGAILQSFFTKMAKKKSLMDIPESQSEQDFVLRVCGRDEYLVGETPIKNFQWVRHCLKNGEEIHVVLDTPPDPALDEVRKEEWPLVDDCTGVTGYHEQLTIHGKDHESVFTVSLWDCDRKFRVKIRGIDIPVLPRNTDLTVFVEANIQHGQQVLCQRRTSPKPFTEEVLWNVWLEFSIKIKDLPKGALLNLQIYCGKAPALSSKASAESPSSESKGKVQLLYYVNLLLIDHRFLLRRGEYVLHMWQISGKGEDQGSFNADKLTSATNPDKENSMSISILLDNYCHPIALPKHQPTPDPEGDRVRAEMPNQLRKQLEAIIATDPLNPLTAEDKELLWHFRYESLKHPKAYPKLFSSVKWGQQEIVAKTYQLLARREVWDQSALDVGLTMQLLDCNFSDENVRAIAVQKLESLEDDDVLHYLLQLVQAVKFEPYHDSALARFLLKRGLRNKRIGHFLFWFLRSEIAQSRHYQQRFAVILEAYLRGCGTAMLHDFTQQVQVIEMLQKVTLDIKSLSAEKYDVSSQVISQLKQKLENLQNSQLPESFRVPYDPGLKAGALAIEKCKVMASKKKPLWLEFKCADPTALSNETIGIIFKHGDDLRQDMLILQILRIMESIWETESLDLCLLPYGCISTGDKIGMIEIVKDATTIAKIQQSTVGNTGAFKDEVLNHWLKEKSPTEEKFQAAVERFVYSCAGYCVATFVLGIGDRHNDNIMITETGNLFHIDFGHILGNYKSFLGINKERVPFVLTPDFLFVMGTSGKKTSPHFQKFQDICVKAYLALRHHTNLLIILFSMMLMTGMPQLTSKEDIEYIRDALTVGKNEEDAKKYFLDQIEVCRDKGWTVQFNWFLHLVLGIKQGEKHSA
Method in brief: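 Human PI3Kγ was preincubated 10 min with compound and PIP2 substrate, then reacted 30 min at room temperature with ATP (40 μmol/L in the added solution); EDTA/biotin-PIP3 quenched. HTRF 665/620 nm ratio read after 18 h, normalized to no-compound (100%) and no-enzyme (0%) controls, gave % inhibition at 50 or 10 μmol/L compound.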

[2] = tested on: Salmonella typhimurium TA98 line, TA100 line; test: Fat Test (mutagenicity in Salmonella typhimurium); type: cell-based; set-up: key: When the mutagenicity is negative, the compound is shown as (−); When positive, the compound is shown as (+); conditions: TA98 and TA100 lines, non-metabolism-activation and metabolism-activation conditions
Protocol: 20 μL of Salmonella enterica subsp. typhimurium (Salmonella typhimurium TA98 line, TA100 line) cryopreserved was inoculated to 10 mL of liquid nutrient medium (2.5% Oxoid nutrient broth No. 2) and then precultured at 37° C. for 10 hours with shaking. Regarding TA98 line, after 9 mL of a bacterial suspension was centrifuged (2000×g, 10 minutes) to remove the culture solution, the bacteria was suspended in 9 mL of Micro F buffer solution (K2HPO4: 3.5 g/L, KH2PO4: 1 g/L, (NH4)2SO4: 1 g/L, tri-sodium citric acid dihydrate: 0.25 g/L, MgSO4.7H2O: 0.1 g/L), and then added to 110 mL of Exposure media (Micro F buffer solution containing biotin: 8 μg/mL, histidine: 0.2 μg/mL, glucose: 8 mg/mL). Regarding TA 100 line, 120 mL of Exposure media was added to 3.16 mL of the bacterial suspension to prepare a test bacterial suspension. 12 μL of a solution of a test substance in DMSO (diluted eight times in a common ratio of 2 from the maximum dose of 50 mg/mL); 12 μL of DMSO as a negative control; 50 μg/mL 4-nitroquinoline-1-oxide solution in DMSO for TA98 line or 0.25 μg/mL 2-(2-furyl)-3-(5-nitro-2-furyl)acrylamide solution in DMSO as a positive control for TA 100 line in the case of a non-metabolism-activation condition; 12 μL of 40 μg/mL 2-aminoanthracene solution in DMSO for TA98 line or 20 μg/mL of 2-aminoanthracene solution in DMSO for TA100 line in the case of a metabolism-activation condition; were each mixed with 588 μL of the test bacterial suspension (in the case of a metabolism activation condition, a mixed solution of 498 μL of the test bacterial suspension and 90 μL S9 mix) and then cultured at 37° C. at 90 minutes with shaking. 460 μL of the bacterial suspension to which a test substance was exposed was mixed with 2300 μL of Indicator media (a Micro F buffer solution containing 8 μg/mL biotin, 0.2 μg/mL histidine, 8 mg/mL glucose, and 37.5 μg/mL bromocresol purple). […] Thus, in 48 wells per dose, the number of the bacteria-proliferation wells in which the color changed to yellow was counted, compared with a group of negative controls, and then evaluated. […]

[3] = biological target: T1, human ether-a-go-go related gene (hERG) channel (Homo sapiens, UniProt Q12809); test: hERG test, whole-cell patch-clamp, IKr; type: cell-based; conditions: 1 μmol/L compound; HEK293 cell expressing hERG
T1 construct: expressed in transfected cells; host or cells: HEK293
T1 sequence (Q12809 whole entry): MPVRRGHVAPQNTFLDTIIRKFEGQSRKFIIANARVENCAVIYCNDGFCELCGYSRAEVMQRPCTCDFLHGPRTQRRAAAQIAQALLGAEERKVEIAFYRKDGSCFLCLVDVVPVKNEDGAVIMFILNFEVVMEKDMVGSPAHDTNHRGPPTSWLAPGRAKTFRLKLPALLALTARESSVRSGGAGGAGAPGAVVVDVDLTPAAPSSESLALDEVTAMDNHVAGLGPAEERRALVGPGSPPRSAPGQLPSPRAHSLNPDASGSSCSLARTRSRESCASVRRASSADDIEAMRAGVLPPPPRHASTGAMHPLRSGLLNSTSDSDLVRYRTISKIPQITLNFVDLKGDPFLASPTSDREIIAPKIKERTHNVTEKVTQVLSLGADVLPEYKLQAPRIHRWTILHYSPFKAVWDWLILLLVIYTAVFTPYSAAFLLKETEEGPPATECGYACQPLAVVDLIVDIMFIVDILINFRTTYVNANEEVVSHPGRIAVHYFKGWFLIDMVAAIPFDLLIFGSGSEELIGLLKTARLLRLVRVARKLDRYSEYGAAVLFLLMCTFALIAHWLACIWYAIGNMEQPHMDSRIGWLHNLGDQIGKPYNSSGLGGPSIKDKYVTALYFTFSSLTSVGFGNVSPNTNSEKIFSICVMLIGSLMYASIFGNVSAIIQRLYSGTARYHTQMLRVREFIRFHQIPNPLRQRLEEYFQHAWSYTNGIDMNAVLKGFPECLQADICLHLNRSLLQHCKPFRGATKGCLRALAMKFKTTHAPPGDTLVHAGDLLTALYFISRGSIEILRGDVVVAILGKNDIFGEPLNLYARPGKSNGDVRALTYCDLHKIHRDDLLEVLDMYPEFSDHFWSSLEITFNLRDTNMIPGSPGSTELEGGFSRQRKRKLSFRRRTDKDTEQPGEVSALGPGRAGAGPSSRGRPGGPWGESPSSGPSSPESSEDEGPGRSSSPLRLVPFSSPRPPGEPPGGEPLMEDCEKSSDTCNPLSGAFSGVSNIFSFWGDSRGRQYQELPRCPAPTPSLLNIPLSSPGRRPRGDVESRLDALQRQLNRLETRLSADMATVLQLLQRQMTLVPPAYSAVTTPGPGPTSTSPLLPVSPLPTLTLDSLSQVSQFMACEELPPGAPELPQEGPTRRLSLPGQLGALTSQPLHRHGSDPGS
Source text: For the purpose of risk evaluation of QT interval extension of electrocardiogram, the activity on delayed rectification K^+ current (IKr), which plays an important role in a cardiac ventricle repolarization process, was examined using the HEK293 cell that was made to express human ether-a-go-go related gene (hERG) channel.
Using an automatic patch-clamp system (PatchXpress 7000A, Axon Instruments Inc.), by a whole-cell patch-clamp method, after the cell was maintained at a membrane potential of −80 mV, IKr induced upon applying depolarizing stimulation of +50 mV for 2 seconds and further applying repolarizing stimulation of −50 mV for 2 seconds was recorded. After generated electric current became stable, a test substance dissolved at an intended concentration in extracellular fluid (137 mmol/L NaCl, 4 mmol/L KCl, 1.8 mmol/L CaCl2.2H2O, 1 mmol/L MgCl2.6H2O, 10 mmol/L glucose, 10 mmol/L HEPES (4-(2-hydroxyethyl)-1-piperazineethanesulfonic acid), pH=7.4) was applied to the cell for 10 minutes under room temperature condition. From the obtained IKr, the absolute value of the maximum tail current was measured using analysis software (DataXpress ver. 1, Molecular Devices Corporation) and the value of the electric current in a maintained membrane potential as baseline. Moreover, an inhibition ratio for the maximum tail current prior to the application of the test substance was calculated and then compared with a group of media-application (0.1% dimethylsulfoxide solution) to evaluate influence of the test substance on IKr.

For `CC1SC(N2CCOc3cccnc32)=NC1=O` (stereo not drawn) [Compound I-1], the solubility at 16 h [1] was over 50 µM, the inhibition at 50 µM (PI-3 kinase γ) was 87% and the mutagenicity [2] was “(−)”.
With `O=C(O)c1cccc(Nc2cnc3c(c2)OCCN3C(=O)Nc2ccccc2)c1` [Compound I-138] the “hERG inhibition ratio for the maximum tail current (IKr)” value [3] was 11.1%, the solubility at 16 h [1] was over 50 µM and the mutagenicity [2] was “(−)”.
